Test results published in ChEMBL document CHEMBL1201862, “PubChem BioAssay data set” (2004).
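Results reflect a 48-hour exposure of cells in 96-well plates to compound at five concentrations. GI50: concentration for 50% inhibition of growth.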 The source made the active and inactive calls. Cut-off read from the data, not from the text of the source: active = GI50 up to about 1.1 µM and inactive = higher.

Experiments:
Assay in all cases: inhibition of tumour cell growth, NCI panel, 48 h
[1] = test system: HOP-92
[2] = test system: HOP-62
[3] = test system: UACC-257
[4] = test system: TK-10
[5] = test system: SF-295
[6] = test system: U-251
[7] = test system: K562
[8] = test system: HCT-15
[9] = test system: UACC-62
[10] = test system: XF498
[11] = test system: KM12
[12] = test system: COLO 205
[13] = test system: SF-268
[14] = test system: NCI-H460
[15] = test system: RPMI-8226
[16] = test system: SK-MEL-28
[17] = test system: HCT-116
[18] = test system: NCI-H23
[19] = test system: CCRF-CEM
[20] = test system: SF-539
[21] = test system: ACHN
[22] = test system: SNB-19
[23] = test system: SN12C
[24] = test system: IGROV-1
[25] = test system: OVCAR-3
[26] = test system: MOLT-4
[27] = test system: A549
[28] = test system: EKVX
[29] = test system: Malme-3M
[30] = test system: NCI-H522
[31] = test system: NCI-H226
[32] = test system: SNB-78
[33] = test system: DLD-1
[34] = test system: RXF 393
[35] = test system: DMS-273
[36] = test system: SW-620
[37] = test system: SK-MEL-2
[38] = test system: HL-60
[39] = test system: SK-MEL-5
[40] = test system: M19-MEL
[41] = test system: M14
[42] = test system: OVCAR-4
[43] = test system: OVCAR-8
[44] = test system: HCC 2998
[45] = test system: SNB-75
[46] = test system: OVCAR-5
[47] = test system: KM-20L2
[48] = test system: A498
[49] = test system: UO-31
[50] = test system: LXFL 529
[51] = test system: RXF 631
[52] = test system: HT-29
[53] = test system: 786-0
[54] = test system: LOX IMVI
[55] = test system: SK-OV-3
[56] = test system: HOP-18
[57] = test system: CAKI-1

`O=[N+]([O-])c1ccccc1/C=N/C12CC3CC(CC(C3)C1)C2` was tested, and the GI50 [1] was 72.8 µM (inactive), the GI50 [2] was 99.5 µM (inactive) and the GI50 [3] was > 100 µM (inactive). For the same compound, the GI50 [4] was > 100 µM (inactive), the GI50 [5] was > 100 µM (inactive) and the GI50 [6] was > 100 µM (inactive). For the same compound, the GI50 [7] was 29.8 µM (inactive), the GI50 [8] was 42.1 µM and the GI50 [9] was > 100 µM (inactive). The GI50 [10] was > 100 µM (inactive), the GI50 [11] was 37.3 µM (inactive) and the GI50 [12] was > 100 µM (inactive). For the same compound, the GI50 [13] was > 100 µM (inactive), the GI50 [14] was > 100 µM (inactive) and the GI50 [15] was 34 µM (inactive). The GI50 [16] was > 100 µM (inactive), the GI50 [17] was 39.3 µM (inactive) and the GI50 [18] was > 100 µM (inactive). For the same compound, the GI50 [19] was 30.9 µM (inactive), the GI50 [20] was 80.2 µM (inactive) and the GI50 [21] was > 100 µM (inactive). For the same compound, the GI50 [22] was 49.9 µM (inactive), the GI50 [23] was > 100 µM (inactive) and the GI50 [24] was > 100 µM (inactive). The GI50 [25] was 32.3 µM (inactive), the GI50 [26] was 34 µM (inactive) and the GI50 [27] was > 100 µM (inactive). For the same compound, the GI50 [28] was > 100 µM (inactive), the GI50 [29] was 66.1 µM (inactive) and the GI50 [30] was > 100 µM (inactive). For the same compound, the GI50 [31] was > 100 µM (inactive), the GI50 [32] was 47.1 µM (inactive) and the GI50 [33] was 36.4 µM (inactive). The GI50 [34] was > 100 µM (inactive), the GI50 [35] was 34.6 µM (inactive) and the GI50 [36] was 46.6 µM (inactive). The GI50 [37] was 65.8 µM (inactive), the GI50 [38] was 21.4 µM (inactive) and the GI50 [39] was 61.4 µM (inactive). For the same compound, the GI50 [40] was > 100 µM (inactive), the GI50 [41] was 56.1 µM (inactive) and the GI50 [42] was 87.7 µM (inactive). The GI50 [43] was 75 µM (inactive), the GI50 [44] was 38.1 µM (inactive) and the GI50 [45] was 65 µM (inactive). For the same compound, the GI50 [46] was > 100 µM (inactive), the GI50 [47] was 51.1 µM (inactive) and the GI50 [48] was > 100 µM (inactive). The GI50 [49] was > 100 µM (inactive), the GI50 [50] was 45.5 µM (inactive) and the GI50 [51] was > 100 µM (inactive). For the same compound, the GI50 [52] was 34.3 µM (inactive), the GI50 [53] was 52.4 µM (inactive) and the GI50 [54] was 47.4 µM (inactive). For the same compound, the GI50 [55] was > 100 µM (inactive), the GI50 [56] was > 100 µM (inactive) and the GI50 [57] was 49.5 µM (inactive).
